Series [1] concerns Phosphorylation of MCM2 at Ser53 (Colo-205 cells). The series can be described thus: Durability of Cdc7 inhibition after washout (pMCM2 Ser53). It is filed as cell-based, human. Conditions: 24 hours after washout. How it is done: The durability of drug-induced Cdc7 inhibition was investigated in Colo-205 cells treated with two concentrations of SRA141 (0.1 μM and 1 μM) for 48 hours, followed by either immediate cell harvest, or removal of the drug incubate followed by an additional 24 hours incubation prior to cell harvest. Phosphorylation of MCM2 at Ser53, a target site of Cdc7 activity, was compared between the two conditions.

The next series relates to MV-4-11 tumor xenografts. Put plainly: Rat xenograft model of AML (MV-4-11), SRA141 monotherapy. The series is classed as in vivo. More on the design: complete regressions (tumor volume <13.5 mm3 for 3 consecutive measurements): unit not given here. Conditions: for tumor growth inhibition (TGI): 5 days of 7-day cycle, 4 weeks, Day 42; for median tumor volume: in mm³ (unit assumed). How it is done: The efficacy of a Cdc7 inhibitor (compound SRA141) as a monotherapy was tested in a rat xenograft model of Acute Myelogenous Leukemia (AML) (FIG. 2). Female rnu/rnu rats were inoculated subcutaneously with 1×10^7 MV-4-11 human acute myelogenous leukemia cells. MV-4-11 cells were injected in a totally volume of 0.1 mL PBS in 1:1 Matrigel®. Rats began SRA141 treatment when tumors reached an average size of 300-400 mm^3. Rats bearing MV-4-11 tumor xenografts were orally administered (i) vehicle control (0.5% CMC-Na/1% Poloxamer 188) or (ii) SRA141 at 75 mg/kg BID for 5 consecutive days of a 7-day cycle for 4 weeks or (iii) SRA141 at 150 mg/kg QD for 5 consecutive days of a 7-day cycle for 4 weeks (n=10 per treatment group). Tumor volume measurements were taken biweekly and body weight measurements were taken biweekly to day 15, then daily to end of study. Tumor growth inhibition was calculated on Day 42, the final day of the study.

Series [2] is described as follows: Plasma concentrations by LC-MS/MS after repeat oral dosing, non-tumor bearing nude rats. The series is classed as in vivo, rat. Particulars: oral 50, 100 or 150 mg/kg, after last dose. How it is done: Non-tumor bearing female nude rats were treated orally with SRA141 (n=3 per route) at 50 mg/kg (QD×12 days) or 100 or 150 mg/kg (5 days on/2 days off/5 days on). The vehicle was 0.5% CMC-Na/1% Lutrol in water. SRA141 plasma concentrations were determined by LC-MS/MS following last dose.

Series [3] concerns pMCM2-S40, pMCM2-S53, pMCM2-S41, pHH3. Put plainly: Immunohistochemistry in rat MV-4-11 xenograft tumor and skin. It is filed as in vivo. How it is done:
Rats bearing subcutaneous biphenotypic B myelomonocytic leukemia MV-4-11 tumors were treated with SRA141 at 75 mg/kg or vehicle, BID, or with SRA141 at 100 mg/kg, QD, for 5 days. Tumors were collected from the animals 12 hours after administration of the last dose. Formalin fixed paraffin-embedded tumor and/or skin were assessed by immunohistochemistry for total MCM2, phosphorylated MCM2 at Serine 40 (pMCM2-S40) and phosphorylated MCM2 at Serine 53 (pMCM2-S53), phosphorylated MCM2 at Serine 41 (pMCM2-S41), and phosphorylated-Histone H2A.X at Serine 139 effects at steady-state.
Tumor cells in xenograft tumors (but not stroma or surrounding rat tissue) were scored. Scoring is performed semi-quantitatively with the main components to scoring tumor cells for total MCM2, pMCM2-S53, pMCM2-S40, and gH2AX reactivity as percentages at differential intensities and H-Scores. Percentage and intensity measures are estimated by a scientist in the same relative region of tumor (one 40×-field from the bottom edge) within each xenograft sample.
The H-Score approach used to evaluate the xenograft tissues requires recording the percentage of tumor cells with nuclear staining at a corresponding differential intensity on a four-point semi-quantitative scale (0, 1+, 2+, 3+). […]
The H-Score is calculated by summing the percentage of cells with intensity of expression (brown staining) multiplied by their corresponding differential intensity on a four-point semi-quantitative scale (0, 1+, 2+, 3+). […]
Epithelial cells of the epidermis in rat skin samples were scored […] by two scientists. Scoring was performed quantitatively with the main component to scoring epidermal cells for total MCM2, pMCM2-S53, pMCM2-S40, and gH2AX reactivity as counts of positive cells. […] For pMCM2-S53 and pMCM2-S40, the number of positive cells in a 10× field at the four representative regions was counted. For gH2Ax, the number of positive cells in a 20× field at the four representative regions was counted. Cells were counted if staining was readily observed at 10× or 20×, regardless of intensity. Cells were only counted within the flat epidermis and not in regions of invagination in order to consistently capture the same total area.
The number of positive skin cells counted across the regions analyzed for each skin sample were averaged for each biomarker. […]
Skin cell counts were performed by recording the number of positive cells (at any intensity) counted by two independent scientists in multiple regions of skin (two regions for total MCM2, four regions for pMCM2 and gH2AX) that are in the same approximate location for each sample. The number of positive cells recorded at each skin region for each biomarker were averaged for each sample. […]

In another series the target is OATP1B1 (Homo sapiens, UniProt Q9Y6L6). The series can be described thus: In vitro transporter inhibition. The series is classed as in vitro ADME.
Chain of OATP1B1 (Q9Y6L6 whole entry): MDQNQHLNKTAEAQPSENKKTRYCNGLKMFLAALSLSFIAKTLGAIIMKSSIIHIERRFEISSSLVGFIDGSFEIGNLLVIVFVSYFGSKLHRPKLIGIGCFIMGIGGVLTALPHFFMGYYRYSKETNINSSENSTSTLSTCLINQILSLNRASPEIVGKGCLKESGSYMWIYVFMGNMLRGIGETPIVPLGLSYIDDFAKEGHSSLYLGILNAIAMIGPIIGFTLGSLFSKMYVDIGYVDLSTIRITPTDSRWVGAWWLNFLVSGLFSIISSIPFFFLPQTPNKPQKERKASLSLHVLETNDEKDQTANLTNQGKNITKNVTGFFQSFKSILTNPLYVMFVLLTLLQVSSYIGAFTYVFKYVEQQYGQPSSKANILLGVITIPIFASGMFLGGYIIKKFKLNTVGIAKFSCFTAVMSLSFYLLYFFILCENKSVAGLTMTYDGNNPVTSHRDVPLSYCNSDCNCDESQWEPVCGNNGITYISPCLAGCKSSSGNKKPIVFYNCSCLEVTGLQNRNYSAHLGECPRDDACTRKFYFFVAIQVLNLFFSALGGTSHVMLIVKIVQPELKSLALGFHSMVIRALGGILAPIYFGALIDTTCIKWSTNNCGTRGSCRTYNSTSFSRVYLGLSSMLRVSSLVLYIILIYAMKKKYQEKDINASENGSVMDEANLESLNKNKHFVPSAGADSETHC
Series [4] concerns MCM2 at Ser40/41 and Ser53 (MV411 cells). Put plainly: Phosphorylation status of Cdc7 target MCM2 in cells. The series is classed as cell-based. How it is done: MV411 cells were also treated with SRA141 in a dose-dependent manner (at concentrations between 0.5 and 3.3 μM) and were subsequently assessed for phosphorylation status of MCM2 at Ser40/41 and Ser53.

From patent publication US12533353B2, “Methods of treatment of cancer comprising CDC7 inhibitors” (CARNA BIOSCIENCES, INC., priority 2018, dated 2026) come the findings set out here.

Bounds are passed on as bounds.

`CCOC(=O)C1=C(NN2CCN(CC(F)(F)F)CC2)O/C(=C\c2c[nH]c3ncccc23)C1=O` [SRA141]: the “Cdc7 activity (pMCM2 Ser53) after washout” value in series [1] (0.1 μM for 48 hours) is recorded as “recovery of Cdc7 activity by 24 hours following compound washout”. In addition, the “Cdc7 activity (pMCM2 Ser53) after washout” value in series [1] (1 μM for 48 hours) is reported as “prolonged pMCM2 inhibition was observed at 24 hours following washout”. In the series on MV-4-11 tumor xenografts (75 mg/kg BID), the complete regressions (tumor volume <13.5 mm3 for 3 consecutive measurements) stood at 1, the “partial regressions (tumor volume <50% of initial volume for 3 consecutive measurements)” value is 3 and the “tumor growth inhibition (TGI)” value is 86.1%. Further, the median tumor volume in the series with MV-4-11 tumor xenografts (75 mg/kg group (n=8)) came out at 1838. For the same compound, in the series on MV-4-11 tumor xenografts (150 mg/kg QD), the partial regressions stood at 2 and the “tumor growth inhibition (TGI)” value amounted to 86.7%. In addition, the median tumor volume with MV-4-11 tumor xenografts (150 mg/kg group (n=9)) was found to be 1764. Further, the tolerability result with MV-4-11 tumor xenografts (all treatments) was “well tolerated with no significant body weight loss”. Also, the “systemic exposure versus dose” value in series [2] is “systemic exposure increased with an increase in the oral dose”. Moreover, in series [3] (75 mg/kg BID or 100 mg/kg QD, 5 days, 12 hours after last dose), the “pMCM2 at S40 and S53 in tumor” value is listed as “substantial decreases”. For the same compound, the “mitotic (pHH3) and apoptotic cells (H&E) in tumors compared to vehicle” value in series [3] (after 5 days of dosing) is “fewer mitotic cells and an increased presence of apoptotic cells”. Besides, in series [3] (after SRA141 treatment), the pMCM2-S41 result was “no effects”. Further, the “pMCM2-S40 in tumor and skin versus dose” value in series [3] (various dosages) is listed as “dose-dependent decrease”. At OATP1B1, the inhibition (in general, how much of the control response was suppressed) at 10 µM was above 50%. Further, the “concentration from which MCM2 phosphorylation at Ser40/41 and Ser53 was reduced” value in series [4] amounted to 0.5 µM.
